Experimental data: patent publication US10016409B2, “Method for improving interstitial flow” (priority 2012, dated 2018)
Values joined by “and” are separate entries in the source; they are usually repeats but may differ in a detail not shown here. Equal values may be shown once.

Tests used:
Assay type in all cases: in vivo
Tg-SwDI mice [1] = assay: Cerebral artery reactivity to CO2 supply (vascular pulsation driving force) in Tg-SwDI mice; settings: vs ordinary feed group
Source text: In brain interstitial flow in a central nervous system, vascular wall motion caused by vascular pulsation of artery serves as a driving force so that harmful proteins are excreted (see Mechanisms to explain the reverse perivascular transport of solutes out of the brain. J Theor Biol. 2006 Feb. 21; 238(4): 962-74), Dilation of artery in vascular pulsation is caused by an increased blood pressure in artery due to pulsation of heart, and a decrease in dilation ability of artery attenuates vascular wall motion, and also reduces the interstitial flow. […] The degree of vascular elasticity in cerebral artery can be evaluated by using reactivity with a change in the concentration of blood carbon dioxide. Specifically, cerebral artery whose vascular elasticity and vascular pulsation driving force are maintained, has the ability of sufficiently dilating the vessel diameter afer an increase in the concentration of blood carbon dioxide, and maintains excretion ability for harmful proteins through h interstitial flow. On the other hand, cerebral artery whose vascular elasticity and vascular pulsation driving force are decreased, loses the ability of sufficiently dilating the vessel diameter in response to an increase in the concentration of blood carbon dioxide, and has its escretion ability for harmful proteins impaired. […]

Tg-SwDI mice [2] = assay: Cerebrovascular diameter increase under acetylcholine administration to the brain surface; settings: acetylcholine 100 μM perfused, vs ordinary feed
Source text: In the brain interstitial flow in a central nervous system, vascular wall motion due to artery vascular pulsation serves as a driving force so that harmful proteins are excreted. Dilation of artery in vascular pulsation occurs when the blood pressure in artery increases due to pulsation of heart. A decrease in dilation ability of artery attenuates vascular wall motion, and reduces the interstitial flow accordingly. In the presence of aged mice and cerebral amyloid angiopathy, vascular elasticity (flexibility) of cerebral artery considerably decreases, and vascular wall motion attenuates. Thus, the ability of excretion of harmful proteins deteriorates. In this study, the influence of cilostazol administration on vascular elasticity ability under acetylcholine administration was examined.
It is known that acetylcholine has the physiological action of improving vascular elasticity. […]
In a manner similar to section (1) regarding vascular elasticity enhancement by cilostazol discussed above, model mice (Tg-SwDI mice) (Davis et al, 2004) showing pathological changes, especially cerebral amyloid angiopathy, were used. […] Cerebral blood vessels were visualized with FITC-dextran, and the rate of change in vessel diameter from a time before administration to 3 minutes after the start of administration was analyzed. […]

Tg-SwDI mice [3] = assay: Drainage of injected fluorescent label Aβ1-40 through perivascular interstitial fluid pathway; settings: single images FIGS. 8 to 10, 30 minutes after injection into striate, cilostazol-containing feed group
Source text: To verify interstitial flow improvement by cilostazol, harmful protein drainage facilitation by cilostazol was examined by using a cerebral amyloid angiopathy model. Totally unlike a drainage system through a specific receptor or antigen-antibody reaction, drainage of harmful proteins through the interstitial flow is a general drainage system irrespective of the type and amount of proteins, and Aβ in these examples is merely an example of intracerebral harmful proteins for which the interstitial flow is improved so that drainage is facilitated.
After 15 months from the start of breeding, with respect to Tg-SwDI mice (n=4) of a group administered with cilostazol-containing feed for 13.5 months and Tg-SwDI mice (n=3) of the ordinary feed administered group, Tg-SwDI mice were placed at the prone position under inhalation anesthesia using 1.5% isoflurane, midline incision of scalp was performed, and then, by using a 32 G micropipet, such that a fluorescent label Aβ1-40 was injected for 30 seconds in the manner of stereotaxy into the striate of Tg-SwDI mice (a front part of 0.98 mm and a side part of 1.5 mm in bregma) as indicated by the arrow in FIG. 7. The depth from the brain surface to the injection site of the striate was 3.0 mm, and the fluorescent label Aβ1-40 was purchased from AnaSpec (San Jose, Calif., USA). […]

Structure (SMILES): O=C1CCc2cc(OCCCCc3nnnn3C3CCCCC3)ccc2N1 [cilostazol, 6-[4-(1-cyclohexyl-1H-tetrazole-5-yl)butoxy]3,4-dihydrocarbostyril]
- cerebral artery vasodilation ability with the CO2 supply (relative increase in cerebrovascular diameter) (Tg-SwDI mice [1]; 5% CO2, cilostazol-containing feed for 13.5 months, age 15 months, FIG. 5): significantly enhances cerebral artery vasodilation ability
- cerebral artery vasodilation ability (relative increase rate of the vessel diameter) by the CO2 supply (Tg-SwDI mice [1]; cilostazol-containing feed for 8 months, age 12 months, FIG. 6): significantly increases the cerebral artery vasodilation ability
- relative increase in cerebrovascular diameter under acetylcholine administration (Tg-SwDI mice [2]; cilostazol-containing feed for 8 months, age 12 months, FIG. 23): dilated
- relative increase in cerebrovascular diameter under acetylcholine administration (Tg-SwDI mice [2]; cilostazol-containing feed for 13.5 months, age 15 months, FIG. 24): dilated
- distance of fluorescent label Aβ1-40 accumulation site of a leptomeninges vessel from the injection site (Tg-SwDI mice [3]): 2922 μm and 3422 μm and 3507 μm
